This is an account of results in ChEMBL document CHEMBL1129920, “Cyclic homopentapeptides 2. Synthetic modifications of viomycin” (1997).

SMILES strings stand for the structures. Values after ≈ are worked out from the molar mass of the structure shown.

Common to all, as to type: functional
The test system of one assay is Pasteurella multocida. The experiment in a line: In vitro inhibition of Pasteurella multocida growth.
The next assay relates to Escherichia coli. Kind of assay: In vitro inhibition of Escherichia coli growth.
A further assay relates to Staphylococcus aureus. The experiment in a line: In vitro inhibition of MRSA growth.

For `Cc1ccc(S(=O)(=O)NC2CC([C@H]3NC(=O)/C(=C/NC(N)=O)NC(=O)[C@@H](CO)NC(=O)[C@@H](CO)NC(=O)C(NC(=O)C[C@@H](N)CCCN)CNC3=O)N=C(N)N2)cc1` (some centres undefined), the MIC against Pasteurella multocida and against Escherichia coli was 200 µg/mL (≈ 238 µM) throughout.

For `NCCC[C@H](N)CC(=O)NC1CNC(=O)[C@@H](C2CC(NC(=O)Nc3ccc(Cl)c(Cl)c3)N=C(N)N2)NC(=O)/C(=C/NC(N)=O)NC(=O)[C@@H](CO)NC(=O)[C@@H](CO)NC1=O` (some centres undefined), the MIC in the assay on Pasteurella multocida was found to be 1.56 µg/mL (≈ 1.79 µM); against Escherichia coli, 6.25 µg/mL (≈ 7.16 µM); with Staphylococcus aureus it was 25 µg/mL (≈ 28.6 µM).

As for `NCCC[C@H](N)CC(=O)NC1CNC(=O)[C@@H](C2CC(NC(=O)Nc3ccc(Cl)c(Cl)c3)N=C(N)N2)NC(=O)/C(=C/NC(=O)Nc2ccc(Cl)c(Cl)c2)NC(=O)[C@@H](CO)NC(=O)[C@@H](CO)NC1=O` (some centres undefined), the MIC in the assay on Pasteurella multocida is 6.25 µg/mL (≈ 6.14 µM); with Escherichia coli it was 6.25 µg/mL (≈ 6.14 µM); in the assay on Staphylococcus aureus, 25 µg/mL (≈ 24.6 µM).

In the case of `NCCC[C@H](N)CC(=O)NC1CNC(=O)[C@@H](C2CC(NC(=O)OCc3ccc(I)cc3)N=C(N)N2)NC(=O)/C(=C/NC(N)=O)NC(=O)[C@@H](CO)NC(=O)[C@@H](CO)NC1=O` (some centres undefined), the MIC against Pasteurella multocida came out at 3.13 µg/mL (≈ 3.31 µM); against Escherichia coli it was 12.5 µg/mL (≈ 13.2 µM); with Staphylococcus aureus it was 12.5 µg/mL (≈ 13.2 µM).

`CSC[C@@H](NC1CC([C@H]2NC(=O)/C(=C/NC(=O)Nc3ccc(Cl)c(Cl)c3)NC(=O)[C@@H](CO)NC(=O)[C@@H](CO)NC(=O)C(NC(=O)C[C@@H](N)CCCN)CNC2=O)N=C(N)N1)C(=O)O` (some centres undefined): the MIC against Pasteurella multocida was determined as 3.12 µg/mL (≈ 3.29 µM); with Escherichia coli, 25 µg/mL (≈ 26.4 µM).

As for `NCCC[C@H](N)CC(=O)NC1CNC(=O)[C@@H](C2CC(NC(=O)OCc3cccc(I)c3)N=C(N)N2)NC(=O)/C(=C/NC(N)=O)NC(=O)[C@@H](CO)NC(=O)[C@@H](CO)NC1=O` (some centres undefined), the MIC with Pasteurella multocida was found to be 6.25 µg/mL (≈ 6.62 µM); with Escherichia coli, 6.25 µg/mL (≈ 6.62 µM); in the assay with Staphylococcus aureus, 12.5 µg/mL (≈ 13.2 µM).

As for `NCCC[C@H](N)CC(=O)NC1CNC(=O)[C@@H](C2CC(NC(=O)NCc3cccc(C4CCCCC4)c3)N=C(N)N2)NC(=O)/C(=C/NC(N)=O)NC(=O)[C@@H](CO)NC(=O)[C@@H](CO)NC1=O` (some centres undefined), 12.5 µg/mL (≈ 13.9 µM) was the least that counted as inhibitory against Staphylococcus aureus (MIC).

With `NCCC[C@H](N)CC(=O)NC1CNC(=O)[C@@H](C2CC(NC(=O)OCc3cccc(Cl)c3Cl)N=C(N)N2)NC(=O)/C(=C/NC(N)=O)NC(=O)[C@@H](CO)NC(=O)[C@@H](CO)NC1=O` (some centres undefined), the MIC against Pasteurella multocida was 3.13 µg/mL (≈ 3.53 µM); against Escherichia coli, 25 µg/mL (≈ 28.2 µM); against Staphylococcus aureus it was 12.5 µg/mL (≈ 14.1 µM).

As for `NCCC[C@H](N)CC(=O)NC1CNC(=O)[C@@H](C2CC(NC(=O)NCc3ccc(C4CCCCC4)cc3)N=C(N)N2)NC(=O)/C(=C/NC(N)=O)NC(=O)[C@@H](CO)NC(=O)[C@@H](CO)NC1=O` (some centres undefined), inhibition of growth in the assay with Staphylococcus aureus (MIC) required 25 µg/mL (≈ 27.8 µM).

With `NCCC[C@H](N)CC(=O)NC1CNC(=O)[C@@H](C2CC(NC(=O)OCc3ccccc3)N=C(N)N2)NC(=O)/C(=C/NC(N)=O)NC(=O)[C@@H](CO)NC(=O)[C@@H](CO)NC1=O` (some centres undefined), the MIC with Pasteurella multocida was found to be 25 µg/mL (≈ 30.5 µM); against Escherichia coli, 50 µg/mL (≈ 61.1 µM).

As for `CC(=O)N(C1CC([C@H]2NC(=O)/C(=C/NC(=O)Nc3ccc(Cl)c(Cl)c3)NC(=O)[C@@H](CO)NC(=O)[C@@H](CO)NC(=O)C(NC(=O)C[C@@H](N)CCCN)CNC2=O)N=C(N)N1)[C@H](CS)C(=O)O` (some centres undefined), the MIC is 6.25 µg/mL (≈ 6.4 µM) against Pasteurella multocida and 50 µg/mL (≈ 51.2 µM) in the assay on Escherichia coli.

On to `NCCC[C@H](N)CC(=O)NC1CNC(=O)[C@@H](C2CC(SCCN)NC(N)=N2)NC(=O)/C(=C/NC(=O)Nc2ccc(Cl)c(Cl)c2)NC(=O)[C@@H](CO)NC(=O)[C@@H](CO)NC1=O` (some centres undefined), for which the MIC against Pasteurella multocida came to 3.12 µg/mL (≈ 3.51 µM); in the assay with Escherichia coli, 25 µg/mL (≈ 28.1 µM).

As for `NCCC[C@H](N)CC(=O)NC1CNC(=O)[C@@H](C2CC(c3ccc(O)c(O)c3)N=C(N)N2)NC(=O)/C(=C/NC(N)=O)NC(=O)[C@@H](CO)NC(=O)[C@@H](CO)NC1=O` (some centres undefined), the MIC against Pasteurella multocida and with Escherichia coli was 200 µg/mL (≈ 257 µM) in each case.

For the compound `NCCC[C@H](N)CC(=O)NC1CNC(=O)[C@@H](C2CC(NC(=O)OCc3ccc(Cl)c(Cl)c3)N=C(N)N2)NC(=O)/C(=C/NC(N)=O)NC(=O)[C@@H](CO)NC(=O)[C@@H](CO)NC1=O` (some centres undefined), the MIC was 6.25 µg/mL (≈ 7.04 µM) in the assay with Pasteurella multocida, 25 µg/mL (≈ 28.2 µM) in the assay on Escherichia coli and 3.12 µg/mL (≈ 3.51 µM) with Staphylococcus aureus.

In the case of `NCCC[C@H](N)CC(=O)NC1CNC(=O)[C@@H](C2CC(c3ccc(O)c(O)c3)N=C(N)N2)NC(=O)/C(=C/NC(=O)Nc2ccc(Cl)c(Cl)c2)NC(=O)[C@@H](CO)NC(=O)[C@@H](CO)NC1=O` (some centres undefined), the MIC against Pasteurella multocida and with Escherichia coli was 12.5 µg/mL (≈ 13.5 µM) each time.

For `NCCC[C@H](N)CC(=O)NC1CNC(=O)[C@@H](C2CC(NC(=O)OCc3ccc(Cl)cc3F)N=C(N)N2)NC(=O)/C(=C/NC(N)=O)NC(=O)[C@@H](CO)NC(=O)[C@@H](CO)NC1=O` (some centres undefined), the MIC in the assay with Pasteurella multocida came to 3.13 µg/mL (≈ 3.59 µM); with Escherichia coli, 12.5 µg/mL (≈ 14.3 µM).

Regarding `NCCC[C@H](N)CC(=O)NC1CNC(=O)[C@@H](C2CC(O)N=C(N)N2)NC(=O)/C(=C/NC(N)=O)NC(=O)[C@@H](CO)NC(=O)[C@@H](CO)NC1=O` (some centres undefined), the MIC with Pasteurella multocida and in the assay on Escherichia coli was 200 µg/mL (≈ 292 µM) in each case.

Regarding `NCCC[C@H](N)CC(=O)NC1CNC(=O)[C@@H](C2CC(N[C@H](CS)C(=O)O)N=C(N)N2)NC(=O)/C(=C/NC(=O)Nc2ccc(Cl)c(Cl)c2)NC(=O)[C@@H](CO)NC(=O)[C@@H](CO)NC1=O` (some centres undefined), the results for the minimal inhibitory concentration (MIC) against Pasteurella multocida and in the assay with Escherichia coli were 3.12 µg/mL (≈ 3.34 µM) and 25 µg/mL (≈ 26.8 µM), respectively.

Regarding `CC(C)(C)c1ccc(COC(=O)NC2CC([C@H]3NC(=O)/C(=C/NC(N)=O)NC(=O)[C@@H](CO)NC(=O)[C@@H](CO)NC(=O)C(NC(=O)C[C@@H](N)CCCN)CNC3=O)N=C(N)N2)cc1` (some centres undefined), the MIC turned out to be 12.5 µg/mL (≈ 14.3 µM) with Pasteurella multocida and 25 µg/mL (≈ 28.6 µM) with Escherichia coli.

With `CN[C@H](CC(C)C)C(=O)N[C@H]1C(=O)N[C@@H](CC(N)=O)C(=O)N[C@H]2C(=O)N[C@H]3C(=O)N[C@H](C(=O)N[C@H](C(=O)O)c4cc(O)cc(O)c4-c4cc3ccc4O)[C@H](O)c3ccc(c(Cl)c3)Oc3cc2cc(c3O[C@@H]2O[C@H](CO)[C@@H](O)[C@H](O)[C@H]2O[C@H]2C[C@](C)(N)[C@H](O)[C@H](C)O2)Oc2ccc(cc2Cl)[C@H]1O` [VANCOMYCIN], the lowest concentration to inhibit growth with Staphylococcus aureus (MIC) was 0.78 µg/mL (≈ 0.538 µM).

With `NCCC[C@H](N)CC(=O)NC1CNC(=O)[C@@H](C2CC(NC(=O)NCc3ccc(Cl)c(Cl)c3)N=C(N)N2)NC(=O)/C(=C/NC(N)=O)NC(=O)[C@@H](CO)NC(=O)[C@@H](CO)NC1=O` (some centres undefined), the results for the MIC in the assay on Pasteurella multocida and in the assay with Escherichia coli were 3.13 µg/mL (≈ 3.53 µM) and 12.5 µg/mL (≈ 14.1 µM), respectively.

Consider `NCCC[C@H](N)CC(=O)NC1CNC(=O)[C@@H](C2CC(O)N=C(N)N2)NC(=O)/C(=C/NC(=O)Nc2ccc(Cl)c(Cl)c2)NC(=O)[C@@H](CO)NC(=O)[C@@H](CO)NC1=O` (some centres undefined), for which the MIC turned out to be 3.12 µg/mL (≈ 3.76 µM) against Pasteurella multocida and 50 µg/mL (≈ 60.2 µM) in the assay on Escherichia coli.

With `NCCC[C@H](N)CC(=O)NC1CNC(=O)[C@@H](C2CC(NC(=O)OCc3ccc(Cl)cc3Cl)N=C(N)N2)NC(=O)/C(=C/NC(=O)Nc2ccc(Cl)c(Cl)c2)NC(=O)[C@@H](CO)NC(=O)[C@@H](CO)NC1=O` (some centres undefined), the values for the MIC with Pasteurella multocida, against Escherichia coli and in the assay on Staphylococcus aureus were 6.25 µg/mL (≈ 6.05 µM), 3.13 µg/mL (≈ 3.03 µM) and 12.5 µg/mL (≈ 12.1 µM), respectively.

`COc1ccc(C2CC([C@H]3NC(=O)/C(=C/NC(=O)Nc4ccc(Cl)c(Cl)c4)NC(=O)[C@@H](CO)NC(=O)[C@@H](CO)NC(=O)C(NC(=O)C[C@@H](N)CCCN)CNC3=O)N=C(N)N2)cc1OC` (some centres undefined): the MIC with Pasteurella multocida and in the assay on Escherichia coli was 12.5 µg/mL (≈ 13.1 µM) in each case.

Regarding `COc1ccc(C2CC([C@H]3NC(=O)/C(=C/NC(N)=O)NC(=O)[C@@H](CO)NC(=O)[C@@H](CO)NC(=O)C(NC(=O)C[C@@H](N)CCCN)CNC3=O)N=C(N)N2)cc1OC` (some centres undefined), the minimum inhibitory concentration (MIC) with Pasteurella multocida and with Escherichia coli was > 200 µg/mL in each case.

The term MIC denotes the least concentration at which growth counts as inhibited.
